Reference: ChEMBL document CHEMBL1123770, “Systematic synthesis and biological evaluation of alpha- and beta-D-lyxofuranosyl nucleosides of the five naturally occurring nucleic acid bases” (1987)
≈ marks a conversion by molar mass, not a printed value.

Columns and labels:
Mus musculus [1] = species on record: Mus musculus; assay: Number of mice normal, without lesion after HSV-2 infection observed from day 12 to day 20; format: functional
Mus musculus [2] = species on record: Mus musculus; assay: Number of mice dead after HSV-1 infection observed from day 12 to day 20; format: functional
Oryctolagus cuniculus [3] = species on record: Oryctolagus cuniculus; assay: Minimum inhibitory concentration (MIC) required to reduce virus-induced cytopathogenicity by 50% against KOS strain of Herpes simplex virus-1 in primary rabbit kidney cells; format: functional
Vero [4] = assay: Minimum inhibitory concentration (MIC) required to reduce virus-induced cytopathogenicity by 50% against Parainfluenza virus-3 in African green monkey kidney (Vero B)cells; format: functional, Chlorocebus sabaeus
[5] = Inhibitory effect on KOS strain of Herper simplex virus-1 yield, in primary rabbit kidney cell culture at 400 ug/mL concentration after 24 hours; format: functional, Oryctolagus cuniculus
WI-38 [6] = assay: Minimum cytotoxic concentration (MCC) required to cause a microscopically detectable alteration of host cell morphology, when incubated with WI-38 cells; format: functional; details: Homo sapiens
[7] = Inhibitory effect on KOS strain of Herper simplex virus-1 yield, in primary rabbit kidney cell culture at 100 ug/mL concentration after 24 hours; format: functional, Oryctolagus cuniculus
Mus musculus [8] = species on record: Mus musculus; assay: Number of mice normal, without lesion after HSV-1 infection observed from day 0 to day 3; format: functional
[9] = Inhibitory effect on 196 strain of Herper simplex virus-2 yield, in primary rabbit kidney cell culture 400 ug/mL concentration after 24 hours.; format: functional, Oryctolagus cuniculus
[10] = Minimum cytotoxic concentration (MCC) required to cause a microscopically detectable alteration of host cell morphology, when incubated with PRK cells; format: functional; details: Oryctolagus cuniculus
WI-38 [11] = assay: Minimum inhibitory concentration (MIC) required to reduce virus-induced cytopathogenicity by 50% against Rhinovirus 9 in human diploid (WI-38)cells; format: functional; details: Homo sapiens; read-out: MIC
[12] = Inhibitory effect on 196 strain of Herper simplex virus-2 yield, in primary rabbit kidney cell culture 400 ug/mL concentration after 48 hours.; format: functional, Oryctolagus cuniculus
[13] = Inhibitory effect on KOS strain of Herper simplex virus-1 yield, in primary rabbit kidney cell culture 100 ug/mL concentration after 48 hours.; format: functional, Oryctolagus cuniculus
Vero [14] = assay: Minimum inhibitory concentration (MIC) required to reduce virus-induced cytopathogenicity by 50% against Reo virus-1 in African green monkey kidney (Vero B)cells; format: functional, Chlorocebus sabaeus; details: Chlorocebus sabaeus; read-out: MIC
Mus musculus [15] = species on record: Mus musculus; assay: Number of mice normal, without lesion after HSV-1 infection observed from day 12 to day 20; format: functional
[16] = Inhibitory effect on 196 strain of Herper simplex virus-2 yield, in primary rabbit kidney cell culture 100 ug/mL concentration after 48 hours.; format: functional, Oryctolagus cuniculus
Mus musculus [17] = species on record: Mus musculus; assay: Survival rate at 20th day expressed as number of mice survived infected with HSV-2; out of 10; format: functional
Vero [18] = assay: Minimum inhibitory concentration (MIC) required to reduce virus-induced cytopathogenicity by 50% against forest virus in African green monkey kidney (Vero B)cells; format: functional; details: Chlorocebus sabaeus
[19] = Inhibitory effect on 196 strain of Herper simplex virus-2 yield, in primary rabbit kidney cell culture 40 ug/mL concentration after 24 hours.; format: functional, Oryctolagus cuniculus
HeLa [20] = assay: Minimum cytotoxic concentration (MCC) required to cause a microscopically detectable alteration of host cell morphology, when incubated with HeLa cells; format: functional; details: Homo sapiens
Oryctolagus cuniculus [21] = species on record: Oryctolagus cuniculus; assay: Minimum inhibitory concentration (MIC) required to reduce virus-induced cytopathogenicity by 50% against G strain of Herpes simplex virus-2 in primary rabbit kidney cells; format: functional
HeLa [22] = assay: Minimum inhibitory concentration (MIC) required to reduce virus-induced cytopathogenicity by 50% against Coxsackie virus B4 in HeLa cells; format: functional; details: Homo sapiens
Mus musculus [23] = species on record: Mus musculus; assay: Number of mice dead after HSV-2 infection observed from day 12 to day 20; format: functional
Vero [24] = assay: Minimum cytotoxic concentration (MCC) required to cause a microscopically detectable alteration of host cell morphology, when incubated with Vero B cells; format: functional; details: Chlorocebus sabaeus
WI-38 (Homo sapiens) = assay: Minimum inhibitory concentration (MIC) required to reduce virus-induced cytopathogenicity by 50% against Rhinovirus-1A in human diploid (WI-38)cells
Mus musculus [25] = species on record: Mus musculus; assay: Number of mice normal, without lesion after HSV-2 infection observed from day 0 to day 3; format: functional
[26] = Inhibitory effect on KOS strain of Herper simplex virus-1 yield, in primary rabbit kidney cell culture 400 ug/mL concentration after 48 hours.; format: functional, Oryctolagus cuniculus
Oryctolagus cuniculus [27] = species on record: Oryctolagus cuniculus; assay: Minimum inhibitory concentration (MIC) required to reduce virus-induced cytopathogenicity by 50% against Vaccinia virus in primary rabbit kidney cells; format: functional
[28] = Inhibitory effect on KOS strain of Herper simplex virus-1 yield, in primary rabbit kidney cell culture at 40 ug/mL concentration after 24 hours; format: functional, Oryctolagus cuniculus
Mus musculus [29] = species on record: Mus musculus; assay: Survival rate at 20th day expressed as number of mice survived infected with HSV-1; out of 10; format: functional
Vero [30] = assay: Minimum inhibitory concentration (MIC) required to reduce virus-induced cytopathogenicity by 50% against Coxsackie virus B4 in African green monkey kidney (Vero B)cells; format: functional, Chlorocebus sabaeus; details: Chlorocebus sabaeus; read-out: MIC
[31] = Inhibitory effect on 196 strain of Herper simplex virus-2 yield, in primary rabbit kidney cell culture 40 ug/mL concentration after 48 hours.; format: functional, Oryctolagus cuniculus
[32] = Inhibitory effect on 196 strain of Herper simplex virus-2 yield, in primary rabbit kidney cell culture 100 ug/mL concentration after 24 hours.; format: functional, Oryctolagus cuniculus
Vero [33] = assay: Minimum inhibitory concentration (MIC) required to reduce virus-induced cytopathogenicity by 50% against Sindbis virus in African green monkey kidney (Vero B)cells; format: functional; details: Chlorocebus sabaeus
[34] = Inhibitory effect on KOS strain of Herper simplex virus-1 yield, in primary rabbit kidney cell culture 40 ug/mL concentration after 48 hours.; format: functional, Oryctolagus cuniculus
HeLa [35] = assay: Minimum inhibitory concentration (MIC) required to reduce virus-induced cytopathogenicity by 50% against Vesicular stomatitis virus in HeLa cells; format: functional; details: Homo sapiens
HeLa [36] = assay: Minimum inhibitory concentration (MIC) required to reduce virus-induced cytopathogenicity by 50% against Polio virus-1 in HeLa cells; format: functional; details: Homo sapiens
WI-38 [37] = assay: Minimum inhibitory concentration (MIC) required to reduce virus-induced cytopathogenicity by 50% against Rhinovirus-1A in human diploid (WI-38)cells; format: functional
Oryctolagus cuniculus [38] = species on record: Oryctolagus cuniculus; assay: Minimum inhibitory concentration (MIC) required to reduce virus-induced cytopathogenicity by 50% against Vesicular stomatitis virus in primary rabbit kidney cells; format: functional
[39] = Oryctolagus cuniculus, read-out: MIC

Compound Nc1ncnc2c1ncn2[C@@H]1O[C@H](CO)[C@H](O)[C@@H]1O (stereo in doubt; 8) has a No. of mice (Mus musculus [1]) of 3, a No. of mice (Mus musculus [2]) of 6 and an MIC (Oryctolagus cuniculus [3]) greater than 400 µg/mL. It also gave an MIC (Vero [4]) of 70 µg/mL (≈ 262 µM), a Virus yield [5] of 6.2 log pfu ml-1 and an MCC (WI-38 [6]) greater than 400 µg/mL. For the same compound, the Virus yield [7] was 6.8 log pfu ml-1, the No. of mice (Mus musculus [8]) was 10 and the Virus yield [9] was 3.8 log pfu ml-1. For the same compound, the MCC [10] was greater than 400 µg/mL, the MIC (WI-38 [11]) was greater than 200 µg/mL and the Virus yield [12] was 5.1 log pfu ml-1. The Virus yield [13] was 6.7 log pfu ml-1, the MIC (Vero [14]) was greater than 400 µg/mL and the No. of mice (Mus musculus [15]) was 4. The Virus yield [16] was 5.3 log pfu ml-1, the Survival rate (Mus musculus [17]) was 3 and the MIC (Vero [18]) was greater than 400 µg/mL. The Virus yield [19] was 5.4 log pfu ml-1, the MCC (HeLa [20]) was greater than 400 µg/mL and the MIC (Oryctolagus cuniculus [21]) was 100 µg/mL (≈ 374 µM). It also gave an MIC (HeLa [22]) greater than 400 µg/mL, a No. of mice (Mus musculus [23]) of 7 and an MCC (Vero [24]) greater than 400 µg/mL. The MIC (WI-38 (Homo sapiens)) was greater than 200 µg/mL, the No. of mice (Mus musculus [25]) was 10 and the Virus yield [26] was 6.6 log pfu ml-1. It also gave an MIC (Oryctolagus cuniculus [27]) of 70 µg/mL (≈ 262 µM), a Virus yield [28] of 6.8 log pfu ml-1 and a Survival rate (Mus musculus [29]) of 4. The MIC (Vero [30]) was 70 µg/mL (≈ 262 µM), the Virus yield [31] was 5.5 log pfu ml-1 and the Virus yield [32] was 5.1 log pfu ml-1. It also gave an MIC (Vero [33]) greater than 400 µg/mL and a Virus yield [34] of 7 log pfu ml-1.
NC(=O)c1ncn([C@@H]2O[C@H](CO)[C@@H](O)[C@H]2O)n1 [RIBAVIRIN] showed an MIC (Oryctolagus cuniculus [3]) greater than 400 µg/mL, an MIC (HeLa [35]) of 20 µg/mL (≈ 81.9 µM) and an MIC (Vero [4]; Chlorocebus sabaeus, read-out: MIC) of 70 µg/mL (≈ 287 µM). It also gave an MCC (WI-38 [6]) greater than 400 µg/mL, an MCC [10] greater than 400 µg/mL and an MIC (WI-38 [11]) greater than 400 µg/mL. The MIC (Vero [14]) was 70 µg/mL (≈ 287 µM), the MIC (Vero [18]) was greater than 400 µg/mL and the MCC (HeLa [20]) was greater than 200 µg/mL. The MIC (HeLa [36]) was 70 µg/mL (≈ 287 µM), the MIC (Oryctolagus cuniculus [21]; [39]) was greater than 400 µg/mL and the MIC (HeLa [22]) was 70 µg/mL (≈ 287 µM). It also gave an MIC (WI-38 [37]) of 150 µg/mL (≈ 614 µM), an MCC (Vero [24]) greater than 400 µg/mL and an MIC (Oryctolagus cuniculus [38]) of 150 µg/mL (≈ 614 µM). It also gave an MIC (Oryctolagus cuniculus [27]; [39]) of 20 µg/mL (≈ 81.9 µM), an MIC (Vero [30]) of 10 µg/mL (≈ 40.9 µM) and an MIC (Vero [33]) of 70 µg/mL (≈ 287 µM).
